The conditions of data set [1]: DTA.
The nature of data set [2]: Molar enthalpy of transition or fusion.

Numbers after ± are expanded uncertainties.

From the NIST ThermoML archive (doi:10.1021/je8002223) come the findings set out here.

In the case of `[Cl][Ce]([Cl])[Cl]` [cerium trichloride], in data set [1] (Crystal), the Normal melting temperature amounted to 813 ± 2 °C. Further, the “Molar enthalpy of transition or fusion” value in data set [2] (Crystal) came to 55.5 ± 6 kJ/mol.

Turning to `[Cl-].[Cs+]` [cesium chloride], the Triple point temperature in data set [1] (Crystal 1) is on record as 918 ± 2 K; in data set [1] (Crystal 2), 743 ± 2 K. The “Molar enthalpy of transition or fusion” value in data set [2] (Crystal 1) was 20.3 ± 2.4 kJ/mol; in data set [2] (Crystal 2), 3.8 ± 0.8 kJ/mol.
